Legend:
[1] = target: T1, Inositol-tetrakisphosphate 1-kinase (Homo sapiens) (UniProt Q13572); assay: Inhibition of human ITPK1 in HL-60 cells lysate assessed as reduction of labeling of acyl-phosphate ATP probe at 100 nM; type: cell-free
T1 sequence (whole entry): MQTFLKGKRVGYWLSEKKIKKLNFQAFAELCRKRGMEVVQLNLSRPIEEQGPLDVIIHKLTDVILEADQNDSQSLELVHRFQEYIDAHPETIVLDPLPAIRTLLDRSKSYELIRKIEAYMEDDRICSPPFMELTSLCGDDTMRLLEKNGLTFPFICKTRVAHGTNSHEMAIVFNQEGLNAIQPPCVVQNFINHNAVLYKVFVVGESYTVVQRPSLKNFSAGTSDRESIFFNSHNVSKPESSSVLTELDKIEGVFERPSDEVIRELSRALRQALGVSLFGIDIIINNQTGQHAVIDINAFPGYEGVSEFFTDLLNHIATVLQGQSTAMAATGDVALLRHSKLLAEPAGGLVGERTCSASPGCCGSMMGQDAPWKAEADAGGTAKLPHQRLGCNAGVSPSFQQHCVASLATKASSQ

[2] = target: IKK epsilon/TBK1 (Homo sapiens) (UniProt Q14164+Q9UHD2); assay: Inhibition of human IKKepsilon/TBK1 in HL-60 cells lysate assessed as reduction of labeling of acyl-phosphate ATP probe at 100 nM; type: cell-free
[3] = target: T2, Serine/threonine-protein kinase Nek9 (Homo sapiens) (UniProt Q8TD19); assay: Inhibition of human NEK9 in HL-60 cells lysate assessed as reduction of labeling of acyl-phosphate ATP probe at 100 nM; type: cell-free
T2 sequence (whole entry): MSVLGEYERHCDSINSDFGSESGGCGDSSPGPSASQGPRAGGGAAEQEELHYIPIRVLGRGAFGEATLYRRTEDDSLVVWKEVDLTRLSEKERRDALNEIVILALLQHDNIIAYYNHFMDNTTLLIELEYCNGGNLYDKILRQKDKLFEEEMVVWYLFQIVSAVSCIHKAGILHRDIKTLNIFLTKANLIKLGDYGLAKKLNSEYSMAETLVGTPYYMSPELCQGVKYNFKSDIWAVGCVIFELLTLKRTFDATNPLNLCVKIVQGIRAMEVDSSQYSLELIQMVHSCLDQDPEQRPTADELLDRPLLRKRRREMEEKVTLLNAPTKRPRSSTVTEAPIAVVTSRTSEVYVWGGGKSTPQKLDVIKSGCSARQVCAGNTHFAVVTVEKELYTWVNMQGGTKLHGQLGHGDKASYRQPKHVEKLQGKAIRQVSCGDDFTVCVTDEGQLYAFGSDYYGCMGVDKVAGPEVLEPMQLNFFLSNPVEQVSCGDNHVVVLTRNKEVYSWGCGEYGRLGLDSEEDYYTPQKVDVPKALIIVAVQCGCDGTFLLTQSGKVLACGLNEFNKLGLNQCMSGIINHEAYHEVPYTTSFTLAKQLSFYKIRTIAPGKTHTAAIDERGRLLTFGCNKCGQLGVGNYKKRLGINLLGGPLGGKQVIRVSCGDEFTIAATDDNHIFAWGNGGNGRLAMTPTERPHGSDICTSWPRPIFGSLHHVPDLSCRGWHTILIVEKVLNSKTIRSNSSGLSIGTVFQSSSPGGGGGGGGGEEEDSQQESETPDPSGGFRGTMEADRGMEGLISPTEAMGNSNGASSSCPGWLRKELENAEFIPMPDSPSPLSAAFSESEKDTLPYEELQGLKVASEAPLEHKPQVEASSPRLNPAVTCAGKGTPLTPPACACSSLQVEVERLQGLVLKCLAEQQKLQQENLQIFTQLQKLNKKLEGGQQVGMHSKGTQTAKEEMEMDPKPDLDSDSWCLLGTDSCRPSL

[4] = target: T3, EKC/KEOPS complex subunit TP53RK (Homo sapiens) (UniProt Q96S44); assay: Inhibition of human PRPK in HL-60 cells lysate assessed as reduction of labeling of acyl-phosphate ATP probe at 100 nM; type: cell-free
T3 sequence (whole entry): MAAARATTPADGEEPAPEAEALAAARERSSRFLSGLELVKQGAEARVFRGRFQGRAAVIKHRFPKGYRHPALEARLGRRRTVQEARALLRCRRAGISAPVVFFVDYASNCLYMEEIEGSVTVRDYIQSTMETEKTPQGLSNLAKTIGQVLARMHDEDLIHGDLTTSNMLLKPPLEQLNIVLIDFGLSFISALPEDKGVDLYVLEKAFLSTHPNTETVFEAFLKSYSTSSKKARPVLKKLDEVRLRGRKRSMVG

[5] = target: Mitogen-activated protein kinase kinase kinase 1 (Homo sapiens) (UniProt Q13233); assay: Inhibition of human MAP3K1 in HL-60 cells lysate assessed as reduction of labeling of acyl-phosphate ATP probe at 100 nM; type: cell-free
Mitogen-activated protein kinase kinase kinase 1 (Homo sapiens), sequence (Q13233 whole entry): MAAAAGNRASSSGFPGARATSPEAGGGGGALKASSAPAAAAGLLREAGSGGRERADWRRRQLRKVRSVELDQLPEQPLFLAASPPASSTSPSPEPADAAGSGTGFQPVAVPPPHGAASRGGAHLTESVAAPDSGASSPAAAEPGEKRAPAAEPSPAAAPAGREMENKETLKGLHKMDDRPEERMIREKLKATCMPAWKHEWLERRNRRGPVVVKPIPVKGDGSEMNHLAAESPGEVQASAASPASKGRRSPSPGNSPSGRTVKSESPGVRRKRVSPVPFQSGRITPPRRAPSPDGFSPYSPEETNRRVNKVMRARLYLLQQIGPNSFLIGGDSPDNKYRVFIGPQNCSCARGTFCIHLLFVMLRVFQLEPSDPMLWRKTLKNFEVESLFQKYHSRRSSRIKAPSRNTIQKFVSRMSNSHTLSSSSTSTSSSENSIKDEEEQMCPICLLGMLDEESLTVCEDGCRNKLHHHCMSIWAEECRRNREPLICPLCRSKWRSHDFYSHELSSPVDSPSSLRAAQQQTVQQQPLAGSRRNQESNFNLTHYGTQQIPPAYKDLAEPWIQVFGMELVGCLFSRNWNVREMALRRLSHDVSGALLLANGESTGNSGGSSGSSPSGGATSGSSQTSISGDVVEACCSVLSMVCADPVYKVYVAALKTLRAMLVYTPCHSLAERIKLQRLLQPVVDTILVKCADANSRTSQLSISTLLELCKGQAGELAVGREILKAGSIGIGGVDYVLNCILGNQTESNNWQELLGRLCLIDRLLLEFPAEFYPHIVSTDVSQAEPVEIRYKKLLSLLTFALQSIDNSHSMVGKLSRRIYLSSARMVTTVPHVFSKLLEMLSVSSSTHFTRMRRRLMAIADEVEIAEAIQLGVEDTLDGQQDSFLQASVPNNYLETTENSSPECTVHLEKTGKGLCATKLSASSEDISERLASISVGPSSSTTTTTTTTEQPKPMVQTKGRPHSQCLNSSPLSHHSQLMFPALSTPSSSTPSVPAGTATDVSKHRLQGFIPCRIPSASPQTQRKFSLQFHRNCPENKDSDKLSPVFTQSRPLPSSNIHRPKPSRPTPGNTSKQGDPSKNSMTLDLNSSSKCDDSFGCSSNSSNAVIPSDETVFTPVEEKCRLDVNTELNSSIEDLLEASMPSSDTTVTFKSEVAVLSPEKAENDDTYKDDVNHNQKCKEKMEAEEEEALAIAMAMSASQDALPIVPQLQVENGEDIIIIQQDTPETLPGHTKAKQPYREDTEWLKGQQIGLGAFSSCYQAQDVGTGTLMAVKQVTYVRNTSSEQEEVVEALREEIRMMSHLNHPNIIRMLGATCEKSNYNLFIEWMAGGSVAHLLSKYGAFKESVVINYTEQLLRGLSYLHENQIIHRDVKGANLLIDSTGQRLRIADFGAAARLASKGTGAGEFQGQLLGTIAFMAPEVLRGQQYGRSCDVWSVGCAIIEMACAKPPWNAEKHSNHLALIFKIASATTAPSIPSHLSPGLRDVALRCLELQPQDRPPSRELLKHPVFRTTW

[6] = target: TRAF2 and NCK-interacting protein kinase (Homo sapiens) (UniProt Q9UKE5); assay: Inhibition of human ZC2/TNIK in HL-60 cells lysate assessed as reduction of labeling of acyl-phosphate ATP probe at 100 nM; type: cell-free
TRAF2 and NCK-interacting protein kinase (Homo sapiens), sequence (Q9UKE5 whole entry, looked up, the tested form may be a part): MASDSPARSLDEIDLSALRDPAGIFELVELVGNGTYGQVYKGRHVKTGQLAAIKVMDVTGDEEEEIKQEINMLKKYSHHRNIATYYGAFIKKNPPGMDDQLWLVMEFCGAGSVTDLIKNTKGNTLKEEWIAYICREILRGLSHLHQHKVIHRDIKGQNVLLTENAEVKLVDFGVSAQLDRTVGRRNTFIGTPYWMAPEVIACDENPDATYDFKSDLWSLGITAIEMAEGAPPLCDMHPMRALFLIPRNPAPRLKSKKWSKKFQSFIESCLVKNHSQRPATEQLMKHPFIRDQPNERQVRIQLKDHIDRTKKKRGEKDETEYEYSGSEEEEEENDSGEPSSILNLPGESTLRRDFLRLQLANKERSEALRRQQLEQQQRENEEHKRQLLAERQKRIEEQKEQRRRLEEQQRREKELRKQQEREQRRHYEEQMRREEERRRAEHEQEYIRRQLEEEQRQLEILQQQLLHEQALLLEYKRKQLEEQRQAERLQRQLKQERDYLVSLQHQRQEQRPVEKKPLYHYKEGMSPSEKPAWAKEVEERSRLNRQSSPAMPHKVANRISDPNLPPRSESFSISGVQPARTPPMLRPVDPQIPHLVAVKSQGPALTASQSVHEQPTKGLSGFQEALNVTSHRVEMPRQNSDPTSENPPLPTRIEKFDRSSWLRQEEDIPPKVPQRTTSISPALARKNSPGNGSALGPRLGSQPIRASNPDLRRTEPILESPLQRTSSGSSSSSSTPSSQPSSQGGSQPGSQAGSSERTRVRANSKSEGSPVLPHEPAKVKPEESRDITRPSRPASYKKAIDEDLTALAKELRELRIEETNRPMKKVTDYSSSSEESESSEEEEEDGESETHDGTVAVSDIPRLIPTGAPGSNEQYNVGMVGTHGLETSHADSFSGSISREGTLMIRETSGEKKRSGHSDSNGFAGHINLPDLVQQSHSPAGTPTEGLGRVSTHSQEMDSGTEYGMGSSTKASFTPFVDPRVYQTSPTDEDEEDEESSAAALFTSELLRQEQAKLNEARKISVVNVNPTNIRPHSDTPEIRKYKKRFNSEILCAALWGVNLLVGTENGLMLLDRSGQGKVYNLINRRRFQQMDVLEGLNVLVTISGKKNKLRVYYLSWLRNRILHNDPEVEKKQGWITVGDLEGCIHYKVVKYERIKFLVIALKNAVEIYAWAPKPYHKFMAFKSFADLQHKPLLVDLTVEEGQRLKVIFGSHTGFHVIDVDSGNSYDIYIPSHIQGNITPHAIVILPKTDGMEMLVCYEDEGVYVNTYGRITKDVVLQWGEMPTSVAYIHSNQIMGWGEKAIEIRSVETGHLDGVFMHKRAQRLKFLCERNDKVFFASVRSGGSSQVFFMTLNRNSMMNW

[7] = target: T4, Mixed lineage kinase domain-like protein (Homo sapiens) (UniProt Q8NB16); assay: Inhibition of human MLKL in HL-60 cells lysate assessed as reduction of labeling of acyl-phosphate ATP probe at 100 nM; type: cell-free
T4 sequence (whole entry): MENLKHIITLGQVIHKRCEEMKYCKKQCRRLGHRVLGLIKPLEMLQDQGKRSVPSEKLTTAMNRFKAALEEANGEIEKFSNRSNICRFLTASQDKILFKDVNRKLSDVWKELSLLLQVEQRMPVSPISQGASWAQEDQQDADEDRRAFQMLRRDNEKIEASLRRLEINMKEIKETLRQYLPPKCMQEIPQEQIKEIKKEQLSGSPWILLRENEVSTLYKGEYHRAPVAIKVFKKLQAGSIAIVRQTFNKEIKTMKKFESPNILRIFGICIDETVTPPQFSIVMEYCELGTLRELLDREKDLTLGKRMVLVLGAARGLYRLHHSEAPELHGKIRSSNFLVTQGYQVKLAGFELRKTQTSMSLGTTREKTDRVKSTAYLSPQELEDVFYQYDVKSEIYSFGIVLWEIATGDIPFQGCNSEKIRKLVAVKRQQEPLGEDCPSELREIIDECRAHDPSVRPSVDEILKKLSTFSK

[8] = target: Cyclin-dependent kinase 17 (Homo sapiens) (UniProt Q00537); assay: Inhibition of human PCTAIRE2 in HL-60 cells lysate assessed as reduction of labeling of acyl-phosphate ATP probe at 100 nM; type: cell-free
Cyclin-dependent kinase 17 (Homo sapiens), sequence (Q00537 whole entry, looked up): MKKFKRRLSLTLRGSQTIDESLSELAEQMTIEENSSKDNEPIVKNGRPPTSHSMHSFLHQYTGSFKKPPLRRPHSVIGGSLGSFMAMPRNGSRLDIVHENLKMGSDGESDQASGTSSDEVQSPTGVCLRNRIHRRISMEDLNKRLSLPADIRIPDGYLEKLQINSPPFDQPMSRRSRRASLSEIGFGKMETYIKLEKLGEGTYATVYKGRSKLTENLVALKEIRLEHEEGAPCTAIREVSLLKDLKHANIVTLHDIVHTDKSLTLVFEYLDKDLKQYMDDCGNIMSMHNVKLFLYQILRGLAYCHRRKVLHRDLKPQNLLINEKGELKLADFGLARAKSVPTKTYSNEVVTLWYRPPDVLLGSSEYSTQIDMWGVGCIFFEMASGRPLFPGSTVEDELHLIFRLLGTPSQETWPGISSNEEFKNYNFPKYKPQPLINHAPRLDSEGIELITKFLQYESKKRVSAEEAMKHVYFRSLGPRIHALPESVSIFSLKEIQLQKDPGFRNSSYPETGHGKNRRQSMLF

[9] = target: STE20-like serine/threonine-protein kinase SLK (Homo sapiens) (UniProt Q9H2G2); assay: Inhibition of human SLK in HL-60 cells lysate assessed as reduction of labeling of acyl-phosphate ATP probe at 100 nM
STE20-like serine/threonine-protein kinase SLK (Homo sapiens), sequence (Q9H2G2 whole entry, looked up): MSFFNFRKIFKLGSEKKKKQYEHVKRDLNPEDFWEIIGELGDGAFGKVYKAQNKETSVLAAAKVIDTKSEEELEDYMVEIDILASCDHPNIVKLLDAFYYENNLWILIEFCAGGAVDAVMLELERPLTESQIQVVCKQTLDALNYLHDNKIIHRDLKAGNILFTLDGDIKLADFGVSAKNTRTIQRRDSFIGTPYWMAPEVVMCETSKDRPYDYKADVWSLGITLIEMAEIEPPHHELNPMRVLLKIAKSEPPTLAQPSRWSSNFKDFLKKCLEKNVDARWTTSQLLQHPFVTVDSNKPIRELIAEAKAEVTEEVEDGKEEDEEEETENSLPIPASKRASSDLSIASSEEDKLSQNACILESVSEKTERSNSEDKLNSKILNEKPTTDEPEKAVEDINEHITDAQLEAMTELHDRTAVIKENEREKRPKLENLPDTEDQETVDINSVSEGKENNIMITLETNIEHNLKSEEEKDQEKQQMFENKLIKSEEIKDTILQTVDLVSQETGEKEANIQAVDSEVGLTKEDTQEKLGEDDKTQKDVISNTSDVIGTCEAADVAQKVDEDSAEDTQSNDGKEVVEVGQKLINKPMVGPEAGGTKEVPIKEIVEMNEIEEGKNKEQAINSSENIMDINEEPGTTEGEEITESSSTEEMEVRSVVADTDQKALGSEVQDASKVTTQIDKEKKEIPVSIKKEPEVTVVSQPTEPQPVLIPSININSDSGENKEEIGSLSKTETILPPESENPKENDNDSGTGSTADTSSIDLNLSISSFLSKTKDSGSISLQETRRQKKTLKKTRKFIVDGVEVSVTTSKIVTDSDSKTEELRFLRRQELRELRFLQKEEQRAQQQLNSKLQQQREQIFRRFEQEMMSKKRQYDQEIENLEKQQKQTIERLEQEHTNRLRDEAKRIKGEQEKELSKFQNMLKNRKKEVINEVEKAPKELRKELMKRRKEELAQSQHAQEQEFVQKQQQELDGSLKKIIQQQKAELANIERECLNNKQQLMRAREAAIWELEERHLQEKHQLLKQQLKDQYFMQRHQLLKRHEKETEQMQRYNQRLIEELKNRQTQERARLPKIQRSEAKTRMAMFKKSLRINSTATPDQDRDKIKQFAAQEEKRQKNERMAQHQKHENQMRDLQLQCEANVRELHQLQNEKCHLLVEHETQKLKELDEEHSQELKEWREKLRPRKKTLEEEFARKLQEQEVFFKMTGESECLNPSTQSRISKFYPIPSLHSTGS

Measured: inhibition

C[C@H]1COc2c(NCCCn3cccn3)c(F)c(N)c3c(=O)c(C#N)cn1c23
< 35%: [1] | [2] | [3] | [4] | [5] | [6] | [7] | [8] | [9]

C[C@H]1COc2c(NCCCc3ccccn3)c(F)c(N)c3c(=O)c(C(=O)O)cn1c23
< 35%: [1] | [2] | [3] | [4] | [5] | [6] | [7] | [8] | [9]

C[C@H]1COc2c(NCCCn3cccn3)c(F)c(N)c3c(=O)c(C(=O)O)cn1c23
< 35%: [1] | [2] | [3] | [4] | [5] | [6] | [7] | [8] | [9]

C[C@H]1COc2c(NCCCc3ccccn3)c(F)c(N)c3c(=O)c(C#N)cn1c23
< 35%: [1] | [2] | [3] | [4] | [5] | [6] | [7] | [8] | [9]

Source: ChEMBL document CHEMBL1938230, “6-Position optimization of tricyclic 4-quinolone-based inhibitors of glycogen synthase kinase-3β: discovery of nitrile derivatives with picomolar potency” (Bioorg Med Chem Lett, 2012)
